Assay results as given in PubChem BioAssay (NCI).
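Briefly, cells in 96-well plates were exposed to five compound concentrations for 48 h, and endpoints were estimated by linear interpolation. TGI: concentration producing complete growth inhibition.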

Tests used:
Experiment in all cases: inhibition of tumour cell growth, NCI panel, 48 h
[1] = tested on: IGROV1 ovarian
[2] = tested on: RPMI-8226 leukemia
[3] = tested on: SR leukemia
[4] = tested on: SK-MEL-5 melanoma
[5] = tested on: SF-268 CNS
[6] = tested on: SN12C renal
[7] = tested on: BT-549 breast
[8] = tested on: HCC-2998 colon
[9] = tested on: U251 CNS
[10] = tested on: UACC-257 melanoma
[11] = tested on: SK-MEL-2 melanoma
[12] = tested on: NCI-H522 lung
[13] = tested on: EKVX NSCLC
[14] = tested on: HS 578T breast
[15] = tested on: HT29 colon
[16] = tested on: TK-10 renal
[17] = tested on: SK-MEL-28 melanoma
[18] = tested on: COLO 205 colon
[19] = tested on: HCT-15 colon
[20] = tested on: RXF 393 renal
[21] = tested on: SK-OV-3 ovarian
[22] = tested on: ACHN renal
[23] = tested on: HL-60(TB) leukemia
[24] = tested on: T-47D breast
[25] = tested on: SNB-19 CNS
[26] = tested on: UACC-62 melanoma
[27] = tested on: SNB-75 CNS
[28] = tested on: SF-295 CNS
[29] = tested on: KM12 colon
[30] = tested on: OVCAR-3 ovarian
[31] = tested on: SW-620 colon
[32] = tested on: K-562 leukemia
[33] = tested on: HOP-92 NSCLC
[34] = tested on: NCI-H460 lung
[35] = tested on: NCI/ADR-RES ovarian
[36] = tested on: M14 melanoma
[37] = tested on: DU-145 prostate
[38] = tested on: 786-0 renal
[39] = tested on: CCRF-CEM leukemia
[40] = tested on: NCI-H23 lung
[41] = tested on: UO-31 renal
[42] = tested on: MALME-3M melanoma
[43] = tested on: HCT-116 colon
[44] = tested on: OVCAR-8 ovarian
[45] = tested on: LOX IMVI melanoma
[46] = tested on: NCI-H226 lung
[47] = tested on: OVCAR-5 ovarian
[48] = tested on: A498 renal
[49] = tested on: OVCAR-4 ovarian
[50] = tested on: MDA-MB-231 breast
[51] = tested on: PC-3 prostate
[52] = tested on: MDA-MB-435
[53] = tested on: HOP-62 NSCLC
[54] = tested on: MCF7 breast
[55] = tested on: MDA-N
[56] = tested on: CAKI-1 renal
[57] = tested on: A549 NSCLC
[58] = tested on: MOLT-4 leukemia
[59] = tested on: SF-539 CNS

S=C1NCN2CCN(CC2)CNC(=S)C(=S)NCN2CCN(CC2)CNC1=S
TGI [1]: > 100 µM | TGI [2]: 97.3 µM | TGI [3]: > 100 µM | TGI [4]: > 100 µM | TGI [5]: > 100 µM | TGI [6]: > 100 µM | TGI [7]: > 100 µM | TGI [8]: > 100 µM | TGI [9]: > 100 µM | TGI [10]: > 100 µM | TGI [11]: > 100 µM | TGI [12]: > 100 µM | TGI [13]: > 100 µM | TGI [14]: > 100 µM | TGI [15]: > 100 µM | TGI [16]: > 100 µM | TGI [17]: > 100 µM | TGI [18]: > 100 µM | TGI [19]: > 100 µM | TGI [20]: > 100 µM | TGI [21]: > 100 µM | TGI [22]: > 100 µM | TGI [23]: > 100 µM | TGI [24]: > 100 µM | TGI [25]: > 100 µM | TGI [26]: > 100 µM | TGI [27]: > 100 µM | TGI [28]: > 100 µM | TGI [29]: > 100 µM | TGI [30]: 98.9 µM | TGI [31]: > 100 µM | TGI [32]: > 100 µM | TGI [33]: > 100 µM | TGI [34]: 46.3 µM | TGI [35]: > 100 µM | TGI [36]: > 100 µM | TGI [37]: > 100 µM | TGI [38]: > 100 µM | TGI [39]: 62.3 µM | TGI [40]: > 100 µM | TGI [41]: > 100 µM | TGI [42]: > 100 µM | TGI [43]: > 100 µM | TGI [44]: > 100 µM | TGI [45]: 56.4 µM | TGI [46]: > 100 µM | TGI [47]: > 100 µM | TGI [48]: > 100 µM | TGI [49]: > 100 µM | TGI [50]: > 100 µM | TGI [51]: > 100 µM | TGI [52]: > 100 µM | TGI [53]: > 100 µM | TGI [54]: > 100 µM | TGI [55]: > 100 µM | TGI [56]: > 100 µM | TGI [57]: > 100 µM

COC(=O)C12CCC(C(F)(F)C1=O)C2(C)C (stereo not drawn)
TGI [1]: > 100 µM | TGI [2]: > 100 µM | TGI [3]: > 100 µM | TGI [4]: > 100 µM | TGI [5]: > 100 µM | TGI [6]: > 100 µM | TGI [7]: > 100 µM | TGI [8]: > 100 µM | TGI [9]: > 100 µM | TGI [10]: > 100 µM | TGI [58]: > 100 µM | TGI [11]: > 100 µM | TGI [12]: > 100 µM | TGI [14]: > 100 µM | TGI [15]: > 100 µM | TGI [16]: > 100 µM | TGI [17]: > 100 µM | TGI [18]: > 100 µM | TGI [19]: > 100 µM | TGI [20]: > 100 µM | TGI [21]: > 100 µM | TGI [22]: > 100 µM | TGI [23]: > 100 µM | TGI [24]: > 100 µM | TGI [25]: > 100 µM | TGI [26]: > 100 µM | TGI [27]: > 100 µM | TGI [28]: > 100 µM | TGI [29]: > 100 µM | TGI [30]: > 100 µM | TGI [31]: > 100 µM | TGI [33]: > 100 µM | TGI [34]: > 100 µM | TGI [35]: > 100 µM | TGI [36]: > 100 µM | TGI [37]: > 100 µM | TGI [38]: > 100 µM | TGI [40]: > 100 µM | TGI [41]: > 100 µM | TGI [59]: > 100 µM | TGI [42]: > 100 µM | TGI [43]: > 100 µM | TGI [44]: > 100 µM | TGI [45]: > 100 µM | TGI [46]: > 100 µM | TGI [47]: > 100 µM | TGI [48]: > 100 µM | TGI [49]: > 100 µM | TGI [50]: > 100 µM | TGI [51]: > 100 µM | TGI [52]: > 100 µM | TGI [53]: > 100 µM | TGI [54]: > 100 µM | TGI [55]: > 100 µM | TGI [56]: > 100 µM | TGI [57]: > 100 µM
